From ChEMBL document CHEMBL1142773, “1-(4-Amino-phenyl)-pyrrolidin-3-yl-amine and 6-(3-amino-pyrrolidin-1-yl)-pyridin-3-yl-amine derivatives as melanin-concentrating hormone receptor-1 antagonists” (Bioorg Med Chem Lett, 2005)

The molecules below were run against T1, Melanin-concentrating hormone receptor 1 (Homo sapiens, UniProt Q99705) (assay: Binding affinity towards human MCH-R1 evaluated by its ability to displace radioligand [125I]Tyr13]-MCH).
T1 sequence (Q99705 whole entry): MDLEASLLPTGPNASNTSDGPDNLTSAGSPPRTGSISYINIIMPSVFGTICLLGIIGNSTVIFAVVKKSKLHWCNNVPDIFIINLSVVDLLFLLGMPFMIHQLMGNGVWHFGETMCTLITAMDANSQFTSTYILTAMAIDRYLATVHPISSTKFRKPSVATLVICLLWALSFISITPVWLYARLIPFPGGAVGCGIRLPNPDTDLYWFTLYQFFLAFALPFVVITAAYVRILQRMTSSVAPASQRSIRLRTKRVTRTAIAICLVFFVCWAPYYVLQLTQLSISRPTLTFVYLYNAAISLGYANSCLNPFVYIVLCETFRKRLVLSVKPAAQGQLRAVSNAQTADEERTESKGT

| Structure (SMILES) | Ki [µM] |
| --- | --- |
| CN(C)C1CCN(c2ccc(NC(=O)c3ccc(-n4ccnc4)cc3)cc2)C1 (stereo unspecified) | > 10 |
| CN(C(=O)OC(C)(C)C)C1CCN(c2ccc(NC(=O)c3ccc(-c4ccccc4)cc3)cc2)C1 (stereo unspecified) | > 10 |
| CN(C)C1CCN(c2ccc(NC(=O)c3ccc(-c4ccccc4)cc3)cc2)C1 (stereo unspecified) | 0.0052 |
| COc1ccc(-c2ccc(C(=O)Nc3ccc(N4CCC(N(C)C)C4)cc3)cn2)cc1 (stereo unspecified) | 0.016 |
| CN(C)C1CCN(c2ccc(NC(=O)c3ccc(N4CCCCC4)nc3)cc2)C1 (stereo unspecified) | 2.4 |
| CCN1CCN(c2ccc(C(=O)Nc3ccc(N4CCC(N(C)C)C4)cc3)cn2)CC1 (stereo unspecified) | > 10 |
| CN(Cc1ccccc1)C1CCN(c2ccc(NC(=O)c3ccc(-c4ccccc4)cc3)cc2)C1 (stereo unspecified) | 0.031 |
| CN(C)C1CCN(c2ccc(NC(=O)NCCCc3ccccc3)cc2)C1 (stereo unspecified) | 0.043 |
| CN(C)C1CCN(c2ccc(NC(=O)c3ccc(-c4cccs4)cc3)cc2)C1 (stereo unspecified) | 0.034 |
| CN(C)C1CCN(c2ccc(NC(=O)CCC(=O)c3ccc(Cl)cc3)cc2)C1 (stereo unspecified) | 0.013 |
| CN(C)C1CCN(c2ccc(NC(=O)c3ccc4c(c3)C(=O)c3ccccc3-4)cc2)C1 (stereo unspecified) | > 10 |
| CCN(C)C1CCN(c2ccc(NC(=O)c3ccc(-c4ccccc4)cc3)cc2)C1 (stereo unspecified) | 0.0059 |
| CN(C)C1CCN(c2ccc(NC(=O)C3CCC(c4ccc(Cl)cc4)CC3)cc2)C1 (stereo unspecified) | 0.012 |
| CN(C)C1CCN(c2ccc(NC(=O)c3ccc(-c4ccccc4)nc3)cc2)C1 (stereo unspecified) | 0.11 |
| CN(CC1CC1)C1CCN(c2ccc(NC(=O)c3ccc(-c4ccccc4)cc3)cc2)C1 (stereo unspecified) | 0.0055 |
| CN(Cc1ccccn1)C1CCN(c2ccc(NC(=O)c3ccc(-c4ccccc4)cc3)cc2)C1 (stereo unspecified) | 0.13 |
| CN(C)C1CCN(c2ccc(NC(=O)c3ccc(Oc4ccccc4)cc3)cc2)C1 (stereo unspecified) | > 10 |
| CC(=O)N(C)C1CCN(c2ccc(NC(=O)c3ccc(-c4ccccc4)cc3)cc2)C1 (stereo unspecified) | 3 |
| CN(C)C1CCN(c2ccc(NC(=O)C3CCC(c4ccccc4)CC3)cc2)C1 (stereo unspecified) | 0.014 |
| CN(C)C1CCN(c2ccc(NC(=O)c3ccc(-c4cnco4)cc3)cc2)C1 (stereo unspecified) | > 10 |
| CN(C)C1CCN(c2ccc(NC(=O)CCCC(=O)c3ccccc3)cc2)C1 (stereo unspecified) | 0.25 |
| CN(CCCc1ccccc1)C1CCN(c2ccc(NC(=O)c3ccc(-c4ccccc4)cc3)cc2)C1 (stereo unspecified) | 0.0086 |
| CN(C)C1CCN(c2ccc(NC(=O)Cc3ccc(-c4ccccc4)cc3)cc2)C1 (stereo unspecified) | 4.3 |
| COc1ccc(CCCNC(=O)Nc2ccc(N3CCC(N(C)C)C3)cc2)cc1 (stereo unspecified) | 0.052 |
| CNC1CCN(c2ccc(NC(=O)c3ccc(-c4ccccc4)cc3)cc2)C1 (stereo unspecified) | 0.0031 |

The molecules below were run against T1, Melanin-concentrating hormone receptor 1 (assay: Inhibitory concentration against human MCH-R1-stimulated [Ca2+] influx).

| Structure (SMILES) | IC50 [µM] |
| --- | --- |
| CNC1CCN(c2ccc(NC(=O)c3ccc(-c4ccccc4)cc3)cc2)C1 (stereo unspecified) | 0.166 |
